Consider four molecules from PMC12621189, “Optimization of Selective and CNS Penetrant Alkyne-Based TREK Inhibitors: The Discovery and Characterization of ONO-9517601 (VU6022856) and ONO-7927846 (VU6024391)” (Journal of Medicinal Chemistry, 2025).

Several values for one entry are separate records, joined by “and”; a condition that tells them apart may be missing. Equal entries are not always repeated.

In one data set the target is T1, hTREK-1 (Homo sapiens, UniProt O95069).
T1 construct: expressed in transfected cells
T1 sequence (O95069 1-426): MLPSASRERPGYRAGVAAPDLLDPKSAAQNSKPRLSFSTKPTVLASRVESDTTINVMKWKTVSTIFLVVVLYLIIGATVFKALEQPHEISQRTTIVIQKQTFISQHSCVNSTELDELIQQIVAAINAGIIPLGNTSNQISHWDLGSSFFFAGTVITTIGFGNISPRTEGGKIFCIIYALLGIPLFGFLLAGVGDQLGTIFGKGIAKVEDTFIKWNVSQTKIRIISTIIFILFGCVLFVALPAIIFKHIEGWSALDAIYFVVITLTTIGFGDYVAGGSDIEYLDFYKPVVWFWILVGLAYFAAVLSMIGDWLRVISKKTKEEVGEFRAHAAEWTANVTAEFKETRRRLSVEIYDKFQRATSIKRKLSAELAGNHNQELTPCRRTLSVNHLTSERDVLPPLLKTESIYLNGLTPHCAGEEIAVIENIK
Put plainly: hTREK-1 manual patch clamp assay. It is filed as cell-based. As to conditions: human TREK-1, manual patch clamp; read-out: TREK-1 IC50 (human, MPC). How it is done: hTREK-1 and mTREK-1 patch clamp assay
CHO-K1 cells stably expressing hTREK-1 or CHO-K1 cells transiently expressing mouse TREK-1 (mTREK-1) were plated on glass coverslips, and voltage clamped in the whole-cell configuration of the patch clamp technique. Cells were voltage clamped at a holding potential of - 80 mV and the stepped to 0 mV for 500 msec. The voltage was subsequently ramped from -120mV to +80 mV over a 500 msec duration. This step-ramp protocol was repeated every 10 sec. The bathing solution contained the following: 135 mM NaCl, 5 mM KCl, 2 mM CaCl2, 1 mM MgCl2, 5 mM D-Glucose, 10 mM HEPES, 10 mM sucrose (adjusted to pH 7.4 with NaOH, 300 mosmol/kg H2O). The pipette solution contained the following: 135 mM KCl, 2 mM MgCl2, 1 mM EGTA, 10 mM HEPES, 2 mM Na2ATP (adjusted to pH 7.35 with KOH, 285 mosmol/kg H2O). Test […]
compounds were dissolved into the bathing solution. The effects of test compound on the currents were calculated at 0 mV using the following equations:
% inhibition = (1-post current/pre current) x 100
% inhibition vs compound concentrations were plotted in GraphPad Prism and calculated IC50. […]
In general terms: In patch-clamp work, channel activity is measured electrically.

For a further data set, the target named is T2, human TREK-1 (hTREK-1) (Homo sapiens, UniProt O95069).
T2 construct: expressed in transfected cells
T2 sequence (O95069 1-426): T1 sequence (O95069 1-426)
Put plainly: TREK-1 thallium flux assay (CHO-K1 cells stably expressing hTREK-1). Type of data set: cell-based. As to conditions: human TREK-1, thallium flux; read-out: h TREK-1 Tl+ IC50. The gist of the method: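 Cells loaded with FluxOR dye were preincubated 10 min with test compound in 0.3% DMSO, then given thallium stimulus buffer. ΔRatio was fluorescence 25 s after thallium over pre-thallium baseline; % inhibition was normalised between vehicle and 10 μM reference blocker, and IC50 was fitted from concentration–response.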

Data set [1] can be described thus: Liver microsome intrinsic clearance, mouse. Type of data set: in vitro ADME. As to conditions: mouse liver microsomes, predicted intrinsic clearance, read-out: LMS CLINT mouse.
A short description of data set [2]: Liver microsome intrinsic clearance, rat. As to conditions: for CLint scaled at 1 µM: pH 7.4, rat liver microsomes, predicted intrinsic clearance, read-out: LMS CLINT rat; for Predicted CLhep rat: from microsomal CLint. It is filed as in vitro ADME. The procedure:
were incubated in 100 mM potassium phosphate pH 7.4 buffer with 3 mM MgCl2 at 37 °C with constant shaking. After a 5 min preincubation, the reaction was initiated by the addition of NADPH (1 mM). At selected time intervals (0, 3, 7, 15, 25, and 45 min), aliquots were taken and subsequently placed into a 96-well plate containing cold acetonitrile with internal standard (50 ng/mL carbamazepine). Plates were then centrifuged at 3000 rcf (4 °C) for 10 min, and the supernatant was transferred to a separate 96-well plate and diluted 1:1 with water for LC/MS/MS analysis. The in vitro half-life ( 1/2, min, Eq. 1), intrinsic clearance (CLint, mL/min/kg, Eq. 2), and subsequent predicted hepatic clearance (CLhep, mL/min/kg, Eq. 3) was determined employing the […]
where k represents the slope from linear regression analysis of the natural log percent remaining of a test compound as a function of incubation time […]
(2) CLint = in vitroT x mg microsomes x gram liver x kg body wt ascale-up factors: of 20 (human) or 45 (rat) […]
where Qh (hepatic blood flow, mL/min/kg) is 21 (human) or 70 (rat).
LC/MS/MS Bioanalysis of Samples from Plasma Protein Binding and Intrinsic Clearance […]
Samples were analyzed on a Thermo Electron TSQ Quantum Ultra triple quad mass spectrometer (San Jose, CA) via electrospray ionization (ESI) with two Themo Electron Accella pumps (San Jose, CA), and a Leap Technologies CTC PAL autosampler (Carrboro, NC). Analytes were […]

As to `Cc1cc(C#Cc2ccccc2)cnc1NC(=O)c1cc(OC[C@@H]2COCCO2)ccc1Cl` [Compound 7, (S)-5-((1,4-Dioxan-2-yl)methoxy)-2-chloro-N-(3-methyl-5-(phenylethynyl)pyridin-2-yl)benzamide], the IC50 (commonly the concentration that inhibits the measured activity by half) turned out to be 79 nM on hTREK-1 and 210 nM on human TREK-1 (hTREK-1). Also, the CLint scaled at 1 µM in data set [1] (pH 7.4) was 88 mL/min/kg.
On to `CC(=O)N1CCC(n2ncc(Cl)c2C(=O)Nc2ncc(C#Cc3ccccc3)cc2C)CC1` [Compound 10, 1-(1-Acetylpiperidin-4-yl)-4-chloro-N-(3-methyl-5-(phenylethynyl)pyridin-2-yl)-1H-pyrazole-5-carboxamide], for which the IC50 on hTREK-1 turned out to be 63 nM. The half-maximal inhibitory concentration (IC50) on human TREK-1 (hTREK-1) was 67 nM and 70 nM. Moreover, in data set [2], the CLint scaled at 1 µM is 62 mL/min/kg and the “Predicted CLhep rat” value is 32.9 mL/min/kg. Besides, the CLint scaled in data set [1] is 8 mL/min/kg.
As for `CC(=O)N1CC[C@@H](n2ncc(Cl)c2C(=O)Nc2ncc(C#Cc3ccc(F)cc3)cc2C)[C@H](F)C1` [Compound 11, 1-((3R,4R)-1-Acetyl-3-fluoropiperidin-4-yl)-4-chloro-N-(5-((4-fluorophenyl)ethynyl)-3-methylpyridin-2-yl)-1H-pyrazole-5-carboxamide], the concentration for half-maximal inhibition (IC50) worked out at 64 nM at hTREK-1 and 110 nM at human TREK-1 (hTREK-1). Moreover, the CLint scaled at 1 µM in data set [2] was 40 mL/min/kg. Also, the “Predicted CLhep rat” value in data set [2] is listed as 25.4 mL/min/kg. Moreover, the CLint scaled in data set [1] was 134 mL/min/kg.
As to `Cc1cc(C#Cc2ccccc2)cnc1NC(=O)c1c(Cl)cnn1[C@H]1CCOC1` [Compound 15a, (S)-4-Chloro-N-(3-methyl-5-(phenylethynyl)pyridin-2-yl)-1-(tetrahydrofuran-3-yl)-1H-pyrazole-5-carboxamide], the IC50 on human TREK-1 (hTREK-1) was determined as 360 nM. The CLint scaled at 1 µM in data set [2] is 49 mL/min/kg.
